In patent US5324648A, “Substituted isocoumarins as serine protease inhibitors and anti-inflammatory agents” (Georgia Tech Research Corporation, priority 1992, dated 1994):
Where two headings read alike, the source gives them in different places.

How the values were obtained:
[1] = biological target: T1, human leukocyte elastase (HLE) (Homo sapiens, UniProt P08246); assay: Inactivation of human leukocyte elastase (HLE); assay type: biochemical; settings: Table X; pH 7.5, 25° C; [I] 2.1-42 μM; read-out: kobs/[I]
T1 construct: from tissue; host or cells: human leukocytes (from the name)
T1 sequence (P08246 30-267): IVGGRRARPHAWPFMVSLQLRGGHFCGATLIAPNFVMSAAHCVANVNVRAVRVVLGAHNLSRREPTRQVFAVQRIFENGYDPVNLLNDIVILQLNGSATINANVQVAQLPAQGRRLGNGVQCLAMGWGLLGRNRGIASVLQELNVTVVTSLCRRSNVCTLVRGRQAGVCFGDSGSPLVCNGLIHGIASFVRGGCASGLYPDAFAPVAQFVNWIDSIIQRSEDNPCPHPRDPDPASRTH

[2] = biological target: T2, rat skin tryptase (Rattus norvegicus, UniProt P27435); assay: Inactivation rate of rat skin tryptase; assay type: biochemical; settings: pH 7.5, Table IX; pH 7.5, 25° C; [I] 0.42-0.51 μM; read-out: kobs/[I]
T2 construct: from tissue; host or cells: rat skin
Protocol: (§1) Inactivation rates of serine proteases by substituted isocoumarins were measured by the incubation method. An aliquot of inhibitor (25 or 50 μl) in Me2 SO was added to a buffered enzyme solution (0.01-2.3 μM) to initiate the inactivation. Aliquots (50 μl) were withdrawn at various intervals and the residual enzymatic activity was measured. Me2 SO concentration in the reaction mixture was 8-12% (v/v). 0.1 Hepes, 0.01M CaCl2, pH 7.5 buffer was utilized for trypsin and coagulation enzymes. 0.1M Hepes, 0.5M NaCl, pH 7.5 was utilized for other serine proteases. The inhibitor concentrations are shown in all the tables. Peptide thioesters or peptide nitroanilides with appropriate sequence were used as substrates for various serine proteases. All peptide thioester hydrolysis rates were measured with assay mixtures containing 4,4'-dithiodipyridine (ε324 =19800M^-1 cm^-1; Grasetti & Murray, Arch. Biochem. Biophys. 119, pp 41-49 (1967)). Peptide 4-nitroanilide nitroanilide hydrolysis was measured at 410 nm (ε410 =8800M^-1 cm^-1; Erlanger et al., Arch. Biochem. Biophys. 95, pp 271-278 (1961)). First order inactivation rate constant (kobs) were obtained from plots of ln (vt /vo) vs time, and the correlation coefficients were greater than 0.98.
^b Inactivation rates were measured at 25 mM phosphate, 0.5M NaCl, 1
mM EDTA, pH 7.5 buffer, 9% Me2 SO and 25° C.
(§2) ^a Inhibition rates were measured in 0.1M Hepes, 0.01M CaCl2, pH
(§3) 7.5 buffer for human plasmin; 25 mM Phosphate, 0.5M NaCl, 1 mM EDTA, pH
(§4) 7.5 buffer for rat skin tryptase and 0.1M Hepes, 0.5M NaCl, pH 7.5 for
(§5) human lung tryptase, human skin tryptase and rt-PA. All enzymes were
(§6) assayed with ZArg-SBzl (0.07 mM) in the presence of 4,4dithiodipyridine
(§7) (0.33 mM). Reaction mixtures contained 8% Me2 SO and assays were […]

[3] = biological target: T3, cathepsin G (Homo sapiens, UniProt P08311); assay: Inactivation of cathepsin G; assay type: biochemical; settings: Table X; pH 7.5, 25° C; [I] 33-46 μM; read-out: kobs/[I]
T3 construct: from tissue; host or cells: human leukocytes
T3 sequence (P08311 21-255): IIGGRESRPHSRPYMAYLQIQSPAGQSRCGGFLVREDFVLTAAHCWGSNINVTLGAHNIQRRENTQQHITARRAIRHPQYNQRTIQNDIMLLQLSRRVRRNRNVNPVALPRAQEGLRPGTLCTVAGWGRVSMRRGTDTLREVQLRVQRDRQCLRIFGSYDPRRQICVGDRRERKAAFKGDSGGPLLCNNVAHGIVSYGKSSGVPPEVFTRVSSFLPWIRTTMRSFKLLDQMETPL

[4] = biological target: T4, bovine thrombin (Bos taurus, UniProt P00735); assay: Inactivation rate of bovine thrombin; assay type: biochemical; settings: Table VIII; pH 7.5, 25° C; [I] 1.2-54 μM; read-out: kobs/[I]
T4 construct: bovine thrombin
Protocol: as §1
(§8) ^a Conditions were as 0.1M Hepes, 0.01M CaCl2, pH 7.5 and 8-12%
(§9) Me2 SO and 25° C. Rate constants were measured by incubation
(§10) method unless otherwise noted. An aliquot of inhibitor was added to an
(§11) enzyme solution and aliquots removed with time and assayed for remaining
(§12) enzymatic activity. Firstorder rate constants, kobs were obtained
(§13) from the plots of ln(vt /vo) versus time.
as §2
(§14) 7.5 buffer, 8% Me2 SO and at 25° C.

[5] = biological target: T5, human thrombin (Homo sapiens, UniProt P00734); assay: Inactivation rate of human thrombin; assay type: biochemical; settings: Table VIII; pH 7.5, 25° C; [I] 1.2-54 μM; read-out: kobs/[I]
T5 construct: human thrombin
Protocol: as §1, §2, §14

[6] = test system: human lung tryptase; assay: Inactivation rate of human lung tryptase; assay type: biochemical; settings: Table IX; for kobs/[I]: pH 7.5, 25° C, [I] 0.42-0.47 μM
Protocol: as §1
^a Inactivation rates were measured at 0.1M Hepes, 0.5M NaCl, pH 7.5
buffer, 8% Me2 SO and 25° C.
as §2, §3, §4, §5, §6, §7

[7] = biological target: chymotrypsin (Bos taurus, UniProt P00766); assay: Inactivation of chymotrypsin; assay type: biochemical, bovine; settings: Table X, read-out: kobs/[I]
[8] = biological target: recombinant human tissue plasminogen activator (Homo sapiens, UniProt P00750); assay: Inactivation rate of recombinant human tissue plasminogen activator; assay type: biochemical; settings: for kinact/KI: pH 7.5, Table IX, pH 7.5, 25° C, [I] 3.5-5.0 μM, read-out: kobs/[I]
Protocol: as §1
^a Inactivation constants were measured at 0.1M Hepes, 0.5M NaCl (or
as §2, §3, §4, §5, §6, §7

[9] = Spontaneous hydrolysis in Hepes buffer; assay type: physicochemical; settings: 0.1 Hepes, 0.5M NaCl, pH 7.5, 9% Me2SO, 25° C
Protocol: ^a Conditions were 0.1 Hepes, 0.5M NaCl, pH 7.5 and 9% Me2 SO at
25° C. Spontaneous hydrolysis rates were measured
spectrophotometrically by monitoring the decrease in absorbance due to th
isocoumarin ring system (wavelength 335-380 nm) using the firstorder rate

[10] = biological target: T6, bovine trypsin (Bos taurus, UniProt P00760); assay: Inactivation rate of bovine trypsin; assay type: biochemical; settings: Table VIII; pH 7.5, 25° C; [I] 1.1-4.6 μM; read-out: kobs/[I]
T6 sequence (P00760 24-246): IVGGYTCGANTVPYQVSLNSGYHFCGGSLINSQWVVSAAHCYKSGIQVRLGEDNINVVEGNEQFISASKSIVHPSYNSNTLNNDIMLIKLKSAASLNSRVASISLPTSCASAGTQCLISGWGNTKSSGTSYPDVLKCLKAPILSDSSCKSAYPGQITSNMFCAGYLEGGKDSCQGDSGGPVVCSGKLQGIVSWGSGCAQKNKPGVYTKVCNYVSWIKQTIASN
Protocol: as §1, §8, §9, §10, §11, §12, §13, §2, §14

[11] = biological target: T7, human factor Xa (Homo sapiens, UniProt P00742); assay: Inactivation rate of human factor Xa; assay type: biochemical; settings: Table VIII; pH 7.5, 25° C; [I] 3.6-44 μM; read-out: kobs/[I]
T7 construct: human factor Xa
Protocol: as §1, §8, §9, §10, §11, §12, §13, §2, §14

[12] = biological target: T8, human factor XIIa (Homo sapiens, UniProt P00748); assay: Inactivation rate of human factor XIIa; assay type: biochemical; settings: Table VIII; pH 7.5, 25° C; [I] 3.6-4.9 μM; read-out: kobs/[I]
T8 construct: human factor XIIa
T8 sequence (P00748 373-615 limits assumed): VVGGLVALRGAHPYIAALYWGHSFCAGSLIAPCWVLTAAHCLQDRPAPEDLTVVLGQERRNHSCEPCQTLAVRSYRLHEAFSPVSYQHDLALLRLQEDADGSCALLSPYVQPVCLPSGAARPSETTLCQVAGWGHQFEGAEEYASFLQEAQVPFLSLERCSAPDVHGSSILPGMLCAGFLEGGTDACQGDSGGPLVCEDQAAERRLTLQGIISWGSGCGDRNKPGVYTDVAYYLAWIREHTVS
T8 sequence (P00748 20-372 partner limits assumed): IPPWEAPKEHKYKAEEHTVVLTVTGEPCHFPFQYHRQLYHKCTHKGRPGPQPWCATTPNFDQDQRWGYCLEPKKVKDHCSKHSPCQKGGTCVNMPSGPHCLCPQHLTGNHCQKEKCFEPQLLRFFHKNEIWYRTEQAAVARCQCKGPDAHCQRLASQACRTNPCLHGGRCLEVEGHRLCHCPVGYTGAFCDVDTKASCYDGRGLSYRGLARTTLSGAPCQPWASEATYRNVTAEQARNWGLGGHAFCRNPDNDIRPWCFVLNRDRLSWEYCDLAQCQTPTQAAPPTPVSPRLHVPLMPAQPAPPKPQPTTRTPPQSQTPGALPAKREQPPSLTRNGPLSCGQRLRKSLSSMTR
Protocol: as §1, §8, §9, §10, §11, §12, §13, §2, §14

recombinant human tissue plasminogen activator, sequence (P00750 36-562): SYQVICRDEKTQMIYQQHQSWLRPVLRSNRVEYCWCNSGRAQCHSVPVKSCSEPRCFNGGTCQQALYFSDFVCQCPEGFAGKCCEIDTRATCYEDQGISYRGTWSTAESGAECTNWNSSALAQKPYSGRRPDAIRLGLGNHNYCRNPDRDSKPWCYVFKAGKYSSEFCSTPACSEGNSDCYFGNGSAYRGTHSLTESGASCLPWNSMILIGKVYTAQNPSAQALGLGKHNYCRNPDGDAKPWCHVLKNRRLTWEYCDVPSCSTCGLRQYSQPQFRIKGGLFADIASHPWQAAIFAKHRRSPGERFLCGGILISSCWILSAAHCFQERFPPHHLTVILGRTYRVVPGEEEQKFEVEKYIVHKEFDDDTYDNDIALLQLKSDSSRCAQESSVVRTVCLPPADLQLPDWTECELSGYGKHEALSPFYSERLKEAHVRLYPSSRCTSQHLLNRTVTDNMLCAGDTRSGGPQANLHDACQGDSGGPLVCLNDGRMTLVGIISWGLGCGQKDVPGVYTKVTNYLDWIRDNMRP
T2 sequence (P27435 29-273): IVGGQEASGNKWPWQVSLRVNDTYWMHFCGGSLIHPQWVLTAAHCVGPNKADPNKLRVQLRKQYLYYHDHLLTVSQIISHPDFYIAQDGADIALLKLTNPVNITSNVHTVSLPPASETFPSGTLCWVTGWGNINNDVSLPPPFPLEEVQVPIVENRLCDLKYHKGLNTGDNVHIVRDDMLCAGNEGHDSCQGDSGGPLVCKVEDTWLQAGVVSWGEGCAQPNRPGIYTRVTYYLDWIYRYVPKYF
T7 sequence (P00742 235-488 limits assumed): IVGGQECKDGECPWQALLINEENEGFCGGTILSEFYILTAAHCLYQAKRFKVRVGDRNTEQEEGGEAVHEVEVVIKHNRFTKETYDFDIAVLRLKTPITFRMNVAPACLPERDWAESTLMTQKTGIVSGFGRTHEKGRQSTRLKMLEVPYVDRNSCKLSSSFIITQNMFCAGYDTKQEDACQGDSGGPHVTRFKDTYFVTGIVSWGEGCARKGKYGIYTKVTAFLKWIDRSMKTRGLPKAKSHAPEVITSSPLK
T7 sequence (P00742 41-179 partner limits assumed): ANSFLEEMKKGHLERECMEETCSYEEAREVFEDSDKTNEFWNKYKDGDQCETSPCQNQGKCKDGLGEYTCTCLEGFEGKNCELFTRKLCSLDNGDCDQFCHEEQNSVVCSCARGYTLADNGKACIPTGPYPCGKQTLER

Row | Compound | kinact/KI [1] | kinact/KI [2] | kinact/KI [3] | kinact/KI [4] | kinact/KI [5] | percentage of inhibition ([6]; not time dependent, at 0.34-5.0 μM) | kinact/KI ([7]; pH 7.5, 25° C, [I] 0.9-43 μM) | kinact/KI [8] | t1/2 for spontaneous hydrolysis [9] | kinact/KI [10] | kobs/[I] [6] | kinact/KI [11] | kinact/KI [12] | percentage of inhibition ([8]; Table IX, not time dependent, at 0.34-5.0 μM) | kinact/KI ([7]; pH 7.5, second order rate, equal molar enzyme and inhibitor)
1 | N=C(N)SCCOc1oc(=O)c2cc(NC(=O)[C@@H](N)Cc3ccccc3)ccc2c1Cl [L-Phe--NH-CiTEtOIC, 7-(L-phenylalanylamino)-4-chloro-3-(2-isothiureidoethoxy)isocoumarin] |  | 650000 M⁻¹ s⁻¹ | 53 M⁻¹ s⁻¹ | 1280 M⁻¹ s⁻¹ | 1340 M⁻¹ s⁻¹ |  | 8400 M⁻¹ s⁻¹ | 13000 M⁻¹ s⁻¹ |  |  | 260,000 M^-1 s^-1 | 3770 M⁻¹ s⁻¹ | 107000 M⁻¹ s⁻¹ |  | 
2 | N=C(N)SCCCOc1oc(=O)c2cc(NC(=O)CCc3ccccc3)ccc2c1Cl [PhCH2 CH2 CONH-CiTPrOIC, 7-(3-phenylpropionylamino)-4-chloro-3-(3-isothiureidopropoxy)isocoumarin] |  | 170000 M⁻¹ s⁻¹ |  | 820 M⁻¹ s⁻¹ | 630 M⁻¹ s⁻¹ |  |  | 15000 M⁻¹ s⁻¹ | 1.1 h | 87900 M⁻¹ s⁻¹ | 180,000 M^-1 s^-1 |  |  |  | 

Second part, the compound after the results:

Row | kinact/KI [1] | kinact/KI [2] | kinact/KI [3] | kinact/KI [4] | kinact/KI [5] | percentage of inhibition ([6]; not time dependent, at 0.34-5.0 μM) | kinact/KI ([7]; pH 7.5, 25° C, [I] 0.9-43 μM) | kinact/KI [8] | t1/2 for spontaneous hydrolysis [9] | kinact/KI [10] | kobs/[I] [6] | kinact/KI [11] | kinact/KI [12] | percentage of inhibition ([8]; Table IX, not time dependent, at 0.34-5.0 μM) | kinact/KI ([7]; pH 7.5, second order rate, equal molar enzyme and inhibitor) | Compound
3 | 200 M⁻¹ s⁻¹ | 99000 M⁻¹ s⁻¹ | 31 M⁻¹ s⁻¹ | 420 M⁻¹ s⁻¹ | 310 M⁻¹ s⁻¹ | 60% | 5200 M⁻¹ s⁻¹ | 7000 M⁻¹ s⁻¹ | 1.13 h | 107000 M⁻¹ s⁻¹ |  |  |  |  |  | CC(=O)Nc1ccc2c(Cl)c(OCCCSC(=N)N)oc(=O)c2c1 [CH3 CONH-CiTPrOIC, 7-(acetylamino)-4-chloro-3-(3-isothiureidopropoxy)isocoumarin]
4 |  | 120000 M⁻¹ s⁻¹ |  | 15800 M⁻¹ s⁻¹ | 6730 M⁻¹ s⁻¹ |  |  |  |  |  | 110,000 M^-1 s^-1 | 3630 M⁻¹ s⁻¹ | 59000 M⁻¹ s⁻¹ | 64% |  | N=C(N)SCCOc1oc(=O)c2cc(NC(=O)Cc3ccccc3)ccc2c1Cl [PhCH2 CONH-CiTEtOIC, 7-(phenylacetylamino)-4-chloro-3-(2-isothiureidoethoxy)isocoumarin]
5 | 130 M⁻¹ s⁻¹ | 145000 M⁻¹ s⁻¹ | 64 M⁻¹ s⁻¹ | 600 M⁻¹ s⁻¹ | 610 M⁻¹ s⁻¹ |  |  | 9000 M⁻¹ s⁻¹ | 1.02 h | 165000 M⁻¹ s⁻¹ | 140,000 M^-1 s^-1 |  |  |  | 260000 M⁻¹ s⁻¹ | N=C(N)SCCCOc1oc(=O)c2cc(NC(=O)Cc3ccccc3)ccc2c1Cl [PhCH2 CONH-CiTPrOIC, 7-(phenylacetylamino)-4-chloro-3-(3-isothiureidopropoxy)isocoumarin]
